This data set concerns the target T1, Solute carrier family 22 member 1 (Mus musculus, UniProt O08966).
T1 sequence (O08966 whole entry): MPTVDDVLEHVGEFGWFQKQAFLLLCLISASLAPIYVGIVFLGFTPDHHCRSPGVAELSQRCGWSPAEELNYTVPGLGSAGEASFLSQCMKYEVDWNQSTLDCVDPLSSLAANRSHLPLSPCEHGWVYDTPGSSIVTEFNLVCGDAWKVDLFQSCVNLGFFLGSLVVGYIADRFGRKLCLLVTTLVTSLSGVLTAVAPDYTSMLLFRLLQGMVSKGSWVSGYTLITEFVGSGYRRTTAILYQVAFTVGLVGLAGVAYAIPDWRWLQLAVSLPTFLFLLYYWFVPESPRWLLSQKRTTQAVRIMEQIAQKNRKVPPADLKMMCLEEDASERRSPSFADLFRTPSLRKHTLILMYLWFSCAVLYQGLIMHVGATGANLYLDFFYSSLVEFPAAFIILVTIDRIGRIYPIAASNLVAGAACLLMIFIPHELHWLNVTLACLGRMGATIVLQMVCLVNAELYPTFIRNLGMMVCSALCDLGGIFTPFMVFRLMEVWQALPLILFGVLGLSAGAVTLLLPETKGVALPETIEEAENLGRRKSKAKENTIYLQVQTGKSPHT
Description: TP_TRANSPORTER: decrease in liver concentration in Oct1 -/- mouse. The format is functional, organism-based. The conditions noted are these: in vivo.

As for `C[n+]1ccc(-c2ccccc2)cc1`, the Activity entry is “substrate [+]”.

Take `N=C(N)NCc1cccc(I)c1` [IOBENGUANE]: the Activity entry is “substrate [+]”. Turning to `CC[N+](CC)(CC)CC` [TETRYLAMMONIUM], the Activity result was “substrate [+]”.

The values are drawn from ChEMBL document CHEMBL2073961, “Reduced hepatic uptake and intestinal excretion of organic cations in mice with a targeted disruption of the organic cation transporter 1 (Oct1 [Slc22a1]) gene” (Mol Cell Biol, 2001).
